{"source": "patent US7402587B2", "about": "“Crystalline forms of a pyridinyl-sulfonamide and their use as endothelin receptor antagonists” (Speedel Pharma AG, priority 2004, dated 2008)", "assay_type_in_all_cases": "physicochemical", "key": {"[1]": {"assay": "Hygroscopicity: water adsorption when stored under humid conditions", "conditions": "hygroscopic, water released between 50° C. and 200° C. when heated at 10° C./minute", "protocol": "Polymorph form A is a solid powder with a particle size in the range from 1 to 500 μm, preferably 5 to 300 μm, and more preferably 5 to 200 μm. The polymorph A is hygroscopic and adsorbs water to a content of about 5 percent by weight (when stored under humid conditions), which is continuously released between 50° C. and 200° C., when heated at a rate of 10° C./minute. The polymorph A is especially suitable as an intermediate and starting material to produce stable polymorph forms."}, "[2]": {"assay": "Light sensitivity of solutions and suspensions", "conditions": "in particular above ambient temperature"}, "[3]": {"assay": "Thermodynamic stability of the crystalline forms (own investigations)", "conditions": "compared with the other crystalline forms", "text": "Own investigations have shown that there exist two distinct crystalline forms, hereinafter referred to as form A and form B, as well as a number of further solvates, in particular the methanol, ethanol, isopropanol, dichloromethane, acetone, methyl ethyl ketone and tetrahydrofuran solvates."}}, "data": [{"smiles": "COc1ccccc1Oc1c(NS(=O)(=O)c2ccc(C)cn2)nc(-c2ccncc2)nc1OC", "note": "[form A, 5-methyl-pyridine-2-sulfonic acid [6-methoxy-5-(2-methoxy-phenoxy)-2-pyridin-4-yl-pyrimidin-4-yl]-amide]", "values": [{"measurement": "adsorbs water to a content of", "setting": "[1]", "value": "about 5 percent by weight"}]}, {"smiles": "COc1ccccc1Oc1c(NS(=O)(=O)c2ccc(C)cn2)nc(-c2ccncc2)nc1OC", "note": "[SPP301, 5-methyl-pyridine-2-sulfonic acid [6-methoxy-5-(2-methoxy-phenoxy)-2-pyridin-4-yl-pyrimidin-4-yl]-amide]", "values": [{"measurement": "sensitivity to light", "setting": "[2]", "value": "sensitive to light"}]}, {"smiles": "COc1ccccc1Oc1c(NS(=O)(=O)c2ccc(C)cn2)nc(-c2ccncc2)nc1OC", "note": "[form B, 5-methyl-pyridine-2-sulfonic acid [6-methoxy-5-(2-methoxy-phenoxy)-2-pyridin-4-yl-pyrimidin-4-yl]-amide]", "values": [{"measurement": "thermodynamic stability of crystalline form", "setting": "[3]", "value": "thermodynamically stable"}]}]}
